From patent US6737383B1, “Herbicidal oxadiazolidines” (priority 1999, dated 2004)

Assays:
winter barley = test: Test E winter barley; format: in vivo, Hordeum vulgare; conditions: Preemergence
Italian ryegrass = test: Test E Italian ryegrass; format: in vivo, Lolium multiflorum; conditions: Preemergence
crabgrass = test: Test B pre/postemergence crabgrass; format: in vivo, Digitaria sanguinalis; conditions: for Crabgrass plant response rating (0 to 10 scale): 0 is no effect
Summary of the method: (§1)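 Herbicidal effect was estimated by eye on a ten-point control scale after plants spent twelve to sixteen days in a greenhouse following soil or foliar treatment. Foliar sprays targeted plants at one to four leaves; all doses were formulated in a non-phytotoxic solvent with surfactant.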

surinam grass = test: Test B pre/postemergence surinam grass; format: in vivo, Brachiaria decumbens; conditions: for B. signalgrass plant response rating (0 to 10 scale): 0 is no effect
Summary of the method: as §1

winter wheat [1] = test: Test E winter wheat; format: in vivo, Triticum aestivum; conditions: Preemergence
blackgrass = test: Test E blackgrass; format: in vivo, Alopecurus myosuroides; conditions: Preemergence
bedstraw = test: Test B pre/postemergence bedstraw; format: in vivo, Galium aparine; conditions: for Bedstraw plant response rating (0 to 10 scale): 0 is no effect
Summary of the method: as §1

wild oat = test: Test E wild oat; format: in vivo, Avena fatua; conditions: Preemergence; for Wild oat plant response rating (0 to 100 scale): Rate 250 g/ha
green foxtail = test: Test E green foxtail; format: in vivo, Setaria viridis; conditions: Preemergence
winter wheat [2] = test: Test E winter wheat; format: in vivo, Triticum aestivum; conditions: Postemergence
Summary of the method: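 For postemergence, application to 1- to 4-leaf plants growing in a 60:40 sandy loam–potting mix substrate. Formulation: non-phytotoxic solvent mixture plus surfactant. Untreated controls served as the reference for the visual rating after ~21–28 days.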

corn = test: Test B pre/postemergence corn; format: in vivo, Zea mays; conditions: for Corn plant response rating (0 to 10 scale): 0 is no effect
Summary of the method: as §1

[3] = Rate 62 g/ha, 0 to 100 scale, 0 no effect, 100 complete control
[4] = Rate 125 g/ha, 0 to 100 scale (0 no effect, 100 complete control)
[5] = Postemergence, Rate 125 g/ha, scale of 0 to 10 where 0 is no effect and 10 is complete control
[6] = Postemergence, Rate 250 g/ha, scale 0 to 10, 0 no effect, 10 complete control
[7] = Preemergence, Rate 62 g/ha, scale 0 to 10 (0 no effect, 10 complete control)
[8] = Preemergence, Rate 125 g/ha, scale 0 to 10 (0 no effect, 10 complete control)
[9] = Preemergence, Rate 250 g/ha, scale of 0 to 10 where 0 is no effect and 10 is complete control
[10] = Preemergence, Rate 500 g/ha, scale 0 to 10 (0 no effect, 10 complete control)
[11] = Rate 62 g/ha, Postemergence, scale of 0 to 10 where 0 is no effect and 10 is complete control
[12] = Rate 500 g/ha, Postemergence, scale 0 to 10, 0 no effect, 10 complete control
[13] = Postemergence, Rate 62 g/ha, scale 0 to 10, 0 is no effect, 10 is complete control
[14] = Rate 125 g/ha, Postemergence, scale 0 to 10, 0 no effect, 10 complete control
[15] = Rate 500 g/ha, 0 to 100 scale where 0 is no effect and 100 is complete control
[16] = Preemergence, Rate 62 g/ha, scale of 0 to 10 where 0 is no effect and 10 is complete control
[17] = Preemergence, Rate 125 g/ha, 10 is complete control
[18] = Preemergence, Rate 250 g/ha, scale 0 to 10, 0 is no effect, 10 is complete control
[19] = Rate 250 g/ha, Postemergence, scale 0 to 10, 0 is no effect, 10 is complete control
[20] = Rate 500 g/ha, Postemergence, scale 0 to 10
[21] = Rate 1000 g/ha, 0 to 100 scale where 0 is no effect and 100 is complete control
[22] = Postemergence, Rate 1000 g/ha, scale 0 to 10 (0 no effect, 10 complete control)
[23] = Rate 1000 g/ha, Preemergence, scale 0 to 10 (0 no effect, 10 complete control)

CC(C)N(C(=O)n1oc(=O)n(C(C)C)c1=O)c1ccccc1 [Compound 113]
4: B. signalgrass plant response rating (surinam grass; [13]) | Bedstraw plant response rating (bedstraw; [7]) | Bedstraw plant response rating (bedstraw; [14]) | Plant response rating, Corn (corn; [8])
30: Plant response rating, Blackgrass (blackgrass; [4]) | Plant response rating, Wild oat (wild oat; [4]) | Plant response rating, Wheat (winter) (winter wheat [2]; Rate 125 g/ha, 0 to 100 scale)
70: Plant response rating, Green foxtail (green foxtail; [4]) | Plant response rating, Wheat (winter) (winter wheat [2]; Rate 250 g/ha, 0 to 100 scale (0 no effect, 100 complete control))
8: B. signalgrass plant response rating (surinam grass; [6]) | B. signalgrass plant response rating (surinam grass; Rate 500 g/ha, Postemergence, scale of 0 to 10 where 0 is no effect and 10 is complete control) | Bedstraw plant response rating (bedstraw; [10]) | Plant response rating, Corn (corn; [9])
55: Plant response rating, Green foxtail (green foxtail; [3])
1: Bedstraw plant response rating (bedstraw; [13]) | Corn plant response rating (corn; [5])
60: Plant response rating, Wheat (winter) (winter wheat [1]; Rate 250 g/ha, 0 to 100 scale) | Plant response rating, Blackgrass (blackgrass; [3])
50: Plant response rating, I. Ryegrass (Italian ryegrass; [3]) | Plant response rating, I. Ryegrass (Italian ryegrass; [4]) | Plant response rating, Wheat (winter) (winter wheat [1]; [4])
85: Plant response rating, Barley (winter) (winter barley; Rate 250 g/ha, 0 to 100 scale) | Plant response rating, Blackgrass (blackgrass; Rate 250 g/ha, 0 to 100 scale) | Plant response rating, Green foxtail (green foxtail; Rate 250 g/ha, 0 to 100 scale)
10: Plant response rating, Barley (winter) (winter barley; [3]) | Plant response rating, Barley (winter) (winter barley; [4]) | Plant response rating, Crabgrass (crabgrass; [8]) | Plant response rating, Crabgrass (crabgrass; [9]) | Crabgrass plant response rating (crabgrass; [10]) | Plant response rating, B. signalgrass (surinam grass; [9]) | B. signalgrass plant response rating (surinam grass; [10]) | Corn plant response rating (corn; [10])
9: Crabgrass plant response rating (crabgrass; [5]) | Crabgrass plant response rating (crabgrass; [6]) | Crabgrass plant response rating (crabgrass; [11]) | Crabgrass plant response rating (crabgrass; [12]) | Plant response rating, B. signalgrass (surinam grass; [8])
15: Plant response rating, Wheat (winter) (winter wheat [2]; Rate 62 g/ha, 0 to 100 scale)
40: Plant response rating, Wheat (winter) (winter wheat [1]; [3])
3: Corn plant response rating (corn; [7])
100: Plant response rating, I. Ryegrass (Italian ryegrass; Rate 250 g/ha, 0 to 100 scale)
5: Corn plant response rating (corn; [6])
7: Crabgrass plant response rating (crabgrass; [7]) | B. signalgrass plant response rating (surinam grass; [7]) | B. signalgrass plant response rating (surinam grass; [14]) | Bedstraw plant response rating (bedstraw; [6]) | Plant response rating, Bedstraw (bedstraw; [9])
20: Plant response rating, Wild oat (wild oat; [3])
0: Corn plant response rating (corn; [11])
6: Plant response rating, Bedstraw (bedstraw; [8]) | Corn plant response rating (corn; [12])

Cc1nsc(C)c1-n1c(=O)on(C(=O)N(c2ccc(F)cc2F)C(C)C)c1=O [Compound 158]
60: Plant response rating, Wild oat (wild oat; [15])
40: Wheat (winter) plant response rating (winter wheat [2]; Rate 250 g/ha, 0 to 100 scale where 0 is no effect and 100 is complete control)
50: I. Ryegrass plant response rating (0 to 100 scale) (Italian ryegrass; Rate 250 g/ha) | Plant response rating, I. Ryegrass (Italian ryegrass; [15]) | Blackgrass plant response rating (0 to 100 scale) (blackgrass; Rate 250 g/ha) | Plant response rating, Blackgrass (blackgrass; [15]) | Plant response rating, Wild oat (wild oat; [3]) | Plant response rating, Wild oat (wild oat; [4]) | Wild oat plant response rating (0 to 100 scale) (wild oat) | Plant response rating, Green foxtail (green foxtail; [15])
20: Plant response rating, Barley (winter) (winter barley; [4]) | Plant response rating, I. Ryegrass (Italian ryegrass; [4]) | Plant response rating, Blackgrass (blackgrass; [4]) | Green foxtail plant response rating (0 to 100 scale) (green foxtail; Rate 250 g/ha)
7: Crabgrass plant response rating (crabgrass; [10])
2: Corn plant response rating (corn; [18]) | Corn plant response rating (corn; [10])
10: Plant response rating, Barley (winter) (winter barley; [3]) | Plant response rating, I. Ryegrass (Italian ryegrass; [3]) | Plant response rating, Wheat (winter) (winter wheat [1]; [4]) | Plant response rating, Blackgrass (blackgrass; [3]) | Plant response rating, Green foxtail (green foxtail; [4]) | Plant response rating, Wheat (winter) (winter wheat [2]; Rate 62 g/ha, 0 to 100 scale)
3: Crabgrass plant response rating (crabgrass; [16]) | Crabgrass plant response rating (0 to 10 scale) (crabgrass; [17]) | Plant response rating, Crabgrass (crabgrass; [19])
15: Plant response rating, Wheat (winter) (winter wheat [2]; Rate 125 g/ha, 0 to 100 scale)
4: Crabgrass plant response rating (crabgrass; [18]) | Crabgrass plant response rating (crabgrass; [20])
0: Crabgrass plant response rating (crabgrass; [5]) | Crabgrass plant response rating (crabgrass; [11]) | B. signalgrass plant response rating (surinam grass; [5]) | B. signalgrass plant response rating (surinam grass; [16]) | B. signalgrass plant response rating (0 to 10 scale) (surinam grass; [17]) | B. signalgrass plant response rating (surinam grass; [18]) | B. signalgrass plant response rating (surinam grass; [10]) | B. signalgrass plant response rating (surinam grass; [11]) | Plant response rating, B. signalgrass (surinam grass; [19]) | B. signalgrass plant response rating (surinam grass; [12]) | Plant response rating, Wheat (winter) (winter wheat [1]; [3]) | Bedstraw plant response rating (bedstraw; [5]) | Bedstraw plant response rating (bedstraw; [16]) | Bedstraw plant response rating (0 to 10 scale) (bedstraw; [17]) | Bedstraw plant response rating (bedstraw; [18]) | Bedstraw plant response rating (bedstraw; [10]) | Bedstraw plant response rating (bedstraw; [11]) | Plant response rating, Bedstraw (bedstraw; [19]) | Plant response rating, Green foxtail (green foxtail; [3]) | Corn plant response rating (corn; [5]) | Corn plant response rating (corn; [16]) | Corn plant response rating (0 to 10 scale) (corn; [17]) | Corn plant response rating (corn; [11]) | Plant response rating, Corn (corn; [19]) | Corn plant response rating (corn; [20])
30: Barley (winter) plant response rating (0 to 100 scale) (winter barley; Rate 250 g/ha) | Plant response rating, Barley (winter) (winter barley; [15]) | Wheat (winter) plant response rating (0 to 100 scale) (winter wheat [1]; Rate 250 g/ha) | Plant response rating, Wheat (winter) (winter wheat [2]; Rate 500 g/ha, 0 to 100 scale, 0 no effect, 100 complete control)

Cc1ccccc1-n1c(=O)on(C(=O)N(c2c(F)cccc2F)C(C)C)c1=O [Compound 176]
8: Crabgrass plant response rating (0 to 10 scale) (crabgrass; [17]) | Bedstraw plant response rating (bedstraw; [20])
100: Plant response rating, Green foxtail (green foxtail; [21])
30: Barley (winter) plant response rating (0 to 100 scale) (winter barley; Rate 250 g/ha) | Plant response rating, Wheat (winter) (winter wheat [1]; [15]) | Wild oat plant response rating (0 to 100 scale) (wild oat)
60: Plant response rating, I. Ryegrass (Italian ryegrass; [15])
6: Crabgrass plant response rating (crabgrass; [20]) | Plant response rating, Bedstraw (bedstraw; [23])
2: B. signalgrass plant response rating (surinam grass; [22]) | Plant response rating, Bedstraw (bedstraw; [19]) | Plant response rating, Corn (corn; [23])
70: Plant response rating, Green foxtail (green foxtail; [15])
0: Crabgrass plant response rating (crabgrass; [5]) | B. signalgrass plant response rating (surinam grass; [5]) | B. signalgrass plant response rating (0 to 10 scale) (surinam grass; [17]) | B. signalgrass plant response rating (surinam grass; [18]) | B. signalgrass plant response rating (surinam grass; [10]) | Plant response rating, B. signalgrass (surinam grass; [19]) | B. signalgrass plant response rating (surinam grass; [12]) | Bedstraw plant response rating (bedstraw; [5]) | Bedstraw plant response rating (0 to 10 scale) (bedstraw; [17]) | Bedstraw plant response rating (bedstraw; [18]) | Bedstraw plant response rating (bedstraw; [10]) | Corn plant response rating (corn; [5]) | Corn plant response rating (corn; [22]) | Corn plant response rating (0 to 10 scale) (corn; [17]) | Corn plant response rating (corn; [18]) | Corn plant response rating (corn; [10]) | Plant response rating, Corn (corn; [19]) | Corn plant response rating (corn; [20])
20: Wheat (winter) plant response rating (0 to 100 scale) (winter wheat [1]; Rate 250 g/ha)
75: Plant response rating, Blackgrass (blackgrass; [21])
50: Plant response rating, Barley (winter) (winter barley; [21]) | I. Ryegrass plant response rating (0 to 100 scale) (Italian ryegrass; Rate 250 g/ha) | Plant response rating, Wheat (winter) (winter wheat [1]; [21]) | Plant response rating, Blackgrass (blackgrass; [15]) | Plant response rating, Wild oat (wild oat; [15]) | Plant response rating, Wild oat (wild oat; [21]) | Green foxtail plant response rating (0 to 100 scale) (green foxtail; Rate 250 g/ha) | Plant response rating, Wheat (winter) (winter wheat [2]; Rate 500 g/ha, 0 to 100 scale, 0 is no effect, 100 is complete control)
10: Crabgrass plant response rating (crabgrass; [10]) | Plant response rating, Crabgrass (crabgrass; [23])
9: Crabgrass plant response rating (crabgrass; [22]) | Crabgrass plant response rating (crabgrass; [18]) | Bedstraw plant response rating (bedstraw; [22])
3: Plant response rating, Crabgrass (crabgrass; [19]) | Plant response rating, B. signalgrass (surinam grass; [23])
98: Plant response rating, I. Ryegrass (Italian ryegrass; [21])
40: Plant response rating, Barley (winter) (winter barley; [15]) | Blackgrass plant response rating (0 to 100 scale) (blackgrass; Rate 250 g/ha) | Plant response rating, Wheat (winter) (winter wheat [2]; Rate 1000 g/ha, 0 to 100 scale, 0 is no effect and 100 is complete control)
